Reference: patent USRE49351E1, “Cytoprotective agent” (Biogen MA Inc., priority 2009, dated 2023)

Experiments:
cerebral blood flow = assay: Cerebral blood flow by laser-Doppler in mouse cerebral infarction model; format: in vivo; details: mean ± SE, n=3
Protocol: The improvement effectiveness of SMTP-7 and alteplase on the cerebral blood flow was compared using the mouse cerebral infarction model.
SMTP-7 and alteplase were prepared as in Example 2. SMTP-7 and alteplase were administered in an amount of 10 mg/kg into the femoral vein 1 hour after the initiation of ischemia in a mouse cerebral infarction model, wherein 10% was administered by a bolus administration, and the rest by continuous administration over 30 min. Three mice were used for each condition.
The cerebral blood flow was measured at 6 time points, namely before the initiation of ischemia, immediately after the initiation of ischemia, and after the completion of the drug administration 0 hour (immediately after the completion), 1 hour, 3 hours, and 24 hours.
The cerebral blood flow measurement was conducted by cutting the head skin of a mouse to expose the cranial bone, and measuring the blood flow of the whole brain surfaces by a laser-Doppler apparatus (moorFLPI, Moor Instruments Ltd, UK). The analysis was conducted using moorFLPI (Version 2.1) by rating percentage (%) relative to the value before the initiation of ischemia of each group.

plasmin/α2-antiplasmin = assay: Plasmin activity by fibrinogen zymography of plasma, mouse cerebral infarction model; format: in vivo; details: 10 mg/kg 1 hour after ischemia, mean ± SE, n=6
Protocol: The quantity of plasmin/α2-antiplasmin in plasma was measured by a fibrinogen zymography method for evaluating the plasmin activity, when a triprenyl phenol compound was administered to a mouse cerebral infarction model. As triprenyl phenol compounds, SMTP-7, SMTP-6, SMTP-22, SMTP-25, SMTP-43, and SMTP-44D were used.
The triprenyl phenol compounds were prepared same as in Example 2 and Example 5. The administration of 10 mg/kg of a triprenyl phenol compound was initiated 1 hour after the initiation of ischemia. The administration method was same as Example 3. Six mice were used for each condition.
A blood sample was taken according to the following method at 3 time points, namely after the completion of the administration 0 hour (immediately after the completion), 1 hour, and 3 hours. Under anesthesia with 1 to 1.5% isoflurane, the […] and 90 μL of blood was withdrawn from the abdominal vena cava into a syringe containing 10 μL of sodium citrate (3.8%) (sodium citrate:blood=1:9, final concentration of sodium citrate 0.38%).
After collection the blood was centrifuged (5000 rpm, 15 min, 4° C.) to separate plasma. A part of the plasma was mixed with equal quantity of a sample buffer (125 mM Tris-HCl (pH 6.8), 4% (w/v) SDS, 0.04% (w/v) bromophenol blue, 20% (w/v) sucrose), which was then divided into small fractions, and cryopreserved.
A part of the plasma was reserved and diluted 300-fold with 0.1 N NaOH and the protein content was determined by the Bradford method in order to even out the protein mass to be applied to an electrophoresis gel.
As the standard sample, a sample was prepared by reacting 10 μL of 120 nM plasmin (by SIGMA) and 10 μL of 600 nM α2-antiplasmin (by Wako Pure Chemical Industries, Ltd.) at 37° C. for 30 min, and mixing the same with 20 μL of the sample buffer.
An electrophoresis gel was prepared by overlaying a stacking gel on a 7.5% running gel containing 2 mg/mL fibrinogen (by SIGMA). Based on the determined protein mass, 3 to 15 μL of the sample was applied, so that the equal amount of protein was applied.
After electrophoresis at 10 mA/sheet, for 3 hours the stacking gel was removed and rinsed for 30 min twice with about 100 mL/gel of a rinse liquid (2.5% Triton X-100). After rinsing, incubation was carried out at 37° C. for 24 to 60 hours under gentle shaking with about 100 mL/sheet of an incubation buffer (0.1 M glycine-50 mM Tris-HCl, pH 8.3 at 37° C.).
Thereafter the gel was stained by a stain solution (0.075% CBB 8250, 22.5% methanol, 2.25% sulfosalicylic acid dihydrate, 7.5% trichloroacetic acid) at room temperature for 15 to 30 min with gentle shaking. Removing the stain solution, the gel was decolored by a decoloring solution (methanol:acetic acid:water=1:1:6), which was replaced with water at an appropriate time point according to appearance of bands observed.
The image on the gel was read in by an imaging analyzer (Printgraph (AE-6933FXCF), by ATTO) and the band intensity was evaluated. The results are expressed as a ratio to the value of the control group at 0 hour after the completion of the administration (immediately after the completion).

[1] = 10 mg/kg 1 hour after ischemia, 0 hr after completion of administration
[2] = 10 mg/kg 1 hour after ischemia, 1 hr after completion of administration
[3] = 10 mg/kg 1 hour after ischemia, 3 hr after completion of administration
[4] = 10 mg/kg 1 hour after ischemia, 24 hr after completion of administration
[5] = immediately after initiation of ischemia (before drug administration), group later given 10 mg/kg
[6] = plasma 0 hr after completion of administration
[7] = plasma 1 hr after completion of administration
[8] = plasma 3 hr after completion of administration

Compound	cerebral blood flow relative to the value before the initiation of ischemia (cerebral blood flow; [1]) [%]	cerebral blood flow relative to the value before the initiation of ischemia (cerebral blood flow; [2]) [%]	cerebral blood flow relative to the value before the initiation of ischemia (cerebral blood flow; [3]) [%]	cerebral blood flow relative to the value before the initiation of ischemia (cerebral blood flow; [4]) [%]	cerebral blood flow relative to the value before the initiation of ischemia (cerebral blood flow; [5]) [%]	plasmin activity (plasmin/α2-antiplasmin band intensity), ratio to control group at 0 hour (plasmin/α2-antiplasmin; [6])	plasmin activity (plasmin/α2-antiplasmin band intensity), ratio to control group at 0 hour (plasmin/α2-antiplasmin; [7])	plasmin activity (plasmin/α2-antiplasmin band intensity), ratio to control group at 0 hour (plasmin/α2-antiplasmin; [8])
CC(C)=CCC/C(C)=C/CC[C@@]1(C)Oc2c(c(O)cc3c2CN(CCC[C@@H](C(=O)O)N2Cc4c(cc(O)c5c4O[C@](C)(CC/C=C(\C)CCC=C(C)C)[C@@H](O)C5)C2=O)C3=O)C[C@@H]1O [SMTP-7]	43.74 ± 12.67	44.48 ± 12.59	48.90 ± 15.89	76.01 ± 9.71	34.17 ± 5.22	1.49 ± 0.13	3.23 ± 0.47	3.27 ± 0.67
CC(C)=CCC/C(C)=C/CCC1(C)Oc2c(c(O)cc3c2CN(C(Cc2c[nH]c4ccccc24)C(=O)O)C3=O)CC1O (stereo not shown) [SMTP-6]	–	–	–	–	–	1.08 ± 0.12	1.17 ± 0.14	1.68 ± 0.10
alteplase [reference compound]	56.45 ± 14.70	73.49 ± 20.33	66.83 ± 11.10	71.63 ± 6.06	27.30 ± 2.35	–	–	–
